The values below come from patent US20060276464A1, “Diarylsulfone sulfonamides and use thereof” (Wyeth, priority 2005, published 2006).

Data set [1] deals with T1, SFRP-1 (Homo sapiens, UniProt Q8N474).
T1 sequence (Q8N474 32-314): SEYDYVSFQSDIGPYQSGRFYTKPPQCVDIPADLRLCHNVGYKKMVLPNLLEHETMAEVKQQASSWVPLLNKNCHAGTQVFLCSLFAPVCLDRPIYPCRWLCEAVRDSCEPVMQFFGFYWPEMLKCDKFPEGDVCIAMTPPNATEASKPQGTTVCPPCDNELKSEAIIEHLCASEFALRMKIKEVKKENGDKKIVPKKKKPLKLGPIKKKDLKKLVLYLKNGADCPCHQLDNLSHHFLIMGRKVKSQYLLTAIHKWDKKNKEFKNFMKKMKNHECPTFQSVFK
As to the kind of experiment: Cell-based assay for in vitro measurement of SFRP-1/SARP2 antagonist activity (U2OS cells co-transfected with 16x TCF-tk-Luciferase reporter, Wnt and hSFRP-1).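 On all read-outs here: U2OS cells co-transfected with a TCF-tk luciferase reporter, a Wnt vector, hSFRP-1 or empty vector and CMV-βgal, luciferase luminescence read in cell lysates alongside βgal activity.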 Conditions: for fold induction at 10 µM / fold induction at 15 µM: U2OS; for fold induction at 10 µM: read-out: Fold Induction with SFRP-1, U2OS cells, single dose 10 μM, luciferase reporter, fold induction over SFRP-1 control; for fold induction at 15 µM: single dose, luciferase reporter.

The target in data set [2] is T1, SFRP-1. Kind of data set: Fluorescence polarization binding assay (competitive displacement of a probe compound from SFRP-1).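 Further: test compound competes with a fluorescent probe held by SFRP-1, seen as a drop in probe anisotropy after incubation in darkness, with anisotropy as function of rising compound dose.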 As to conditions: fluorescence anisotropy, 45 nM SFRP-1, 20 nM probe. Background: Polarisation of emitted light reports the rotation of a fluorescent probe.
The mark [3] stands for this setting: read-out: Fold Induction with SFRP-1, Conc 15 μM, fold induction over SFRP-1 control, cells with SFRP-1.
Setting [4] is: read-out: Fold Induction without SFRP-1, Conc 15 μM, cells without SFRP-1 (specificity control).

Read-outs that look alike come from different tables or passages of the source.

In general, melting point refers to the temperature, or range, at which the solid turns liquid. The term IC50 denotes the concentration that gives 50% inhibition. Low readings indicate greater potency, high ones weaker potency. Turning to `CC(C)c1ccc(S(=O)(=O)c2ccccc2)cc1S(=O)(=O)NC1C[C@H]2CC[C@@H](C1)N2C.Cl` (relative stereo) [Example 860, 2-Isopropyl-N-[(1R*,5S*)-8-methyl-8-azabicyclo[3.2.1]oct-3-yl]-5-(phenylsulfonyl)benzenesulfonamide monohydrochloride], the melting point was 90 °C. For the same molecule, at SFRP-1 [1], the fold induction at 10 µM turned out to be 4.1. This molecule also returned an IC50 on SFRP-1 [2] of 800 nM.

`CC(C)c1cc(C(C)C)c(S(=O)(=O)c2ccccc2)cc1S(=O)(=O)NC1Cc2ccccc2C1` [Example 618, N-(2,3-Dihydro-1H-inden-2-yl)-2,4-diisopropyl-5-(phenylsulfonyl)benzenesulfonamide] showed a melting point of 215 to 217 °C. Besides, the fold induction at 15 µM on SFRP-1 [1] (setting [3]) came out at 2.8. Moreover, on SFRP-1 [1] (setting [4]), the fold induction at 15 µM came to 1.1.

The molecule `CC(C)c1cc(C(C)C)c(S(=O)(=O)c2ccc(F)cc2)cc1S(=O)(=O)NCCc1ccccc1` [Example 619, 5-[(4-Fluorophenyl)sulfonyl]-2,4-diisopropyl-N-(2-phenylethyl)benzenesulfonamide] displayed a melting point of 154 to 156 °C. Besides, the fold induction at 15 µM on SFRP-1 [1] (setting [3]) was 1.3. In addition, the fold induction at 15 µM at SFRP-1 [1] (setting [4]) was 1.1.

In turn, `CC(C)c1cc(C(C)C)c(S(=O)(=O)c2ccc(F)cc2)cc1S(=O)(=O)NC1CCCC1` [Example 621, N-Cyclopentyl-5-[(4-fluorophenyl)sulfonyl]-2,4-diisopropylbenzenesulfonamide] had a melting point of 202 to 205 °C. Further, the fold induction at 15 µM on SFRP-1 [1] (setting [3]) amounted to 1.2. Moreover, the fold induction at 15 µM on SFRP-1 [1] (setting [4]) is 1.

As for `CC(C)c1cc(C(C)C)c(S(=O)(=O)c2ccc(F)cc2)cc1S(=O)(=O)NCCc1ccncc1` [Example 633, 5-[(4-Fluorophenyl)sulfonyl]-2,4-diisopropyl-N-(2-pyridin-4-ylethyl)benzenesulfonamide], the melting point is 210 to 211 °C. On SFRP-1 [1] (setting [3]), the fold induction at 15 µM worked out at 1.5. The fold induction at 15 µM at SFRP-1 [1] (setting [4]) was 1.

Molecule `CC(C)c1cc(C(C)C)c(S(=O)(=O)c2ccc(F)cc2)cc1S(=O)(=O)NC1Cc2ccccc2C1` [Example 634, N-(2,3-Dihydro-1H-inden-2-yl)-5-[(4-fluorophenyl)sulfonyl]-2,4-diisopropylbenzenesulfonamide] gave a melting point of 202 to 204 °C. The fold induction at 15 µM at SFRP-1 [1] (setting [3]) was found to be 3. Moreover, the fold induction at 15 µM on SFRP-1 [1] (setting [4]) is 1.

As to `COc1ccc(S(=O)(=O)c2ccccc2)cc1S(=O)(=O)NCCc1cccnc1` [Example 678, 2-Methoxy-5-(phenylsulfonyl)-N-(2-pyridin-3-ylethyl)benzenesulfonamide], the melting point lay within 181 to 183 °C. Further, the fold induction at 10 µM at SFRP-1 [1] was determined as 1.6.

As to `COc1ccc(S(=O)(=O)c2ccccc2)cc1S(=O)(=O)NC1CCOCC1` [Example 689, 2-Methoxy-5-(phenylsulfonyl)-N-(tetrahydro-2H-pyran-4-yl)benzenesulfonamide], the melting point fell in the range of 176 to 178 °C. Besides, at SFRP-1 [1], the fold induction at 10 µM worked out at 1.2.

As usually defined, the EC50 is the midpoint of the concentration-response curve. A low value points to a more potent agent. For the molecule `NC(=O)COc1ccc2c(c1)CC(NS(=O)(=O)c1cc(S(=O)(=O)c3ccccc3)ccc1C(F)(F)F)C2` (stereo not drawn) [Example 1062, 2-{[2-({[5-(phenylsulfonyl)-2-(trifluoromethyl)phenyl]sulfonyl}amino)-2,3-dihydro-1H-inden-5-yl]oxy}acetamide], the EC50 on SFRP-1 [1] was 34 nM. At SFRP-1 [2], this molecule showed an IC50 of 10 nM.

At SFRP-1 [1], `COC(=O)CN1CCC(NS(=O)(=O)c2cc(S(=O)(=O)c3ccccc3)ccc2C(F)(F)F)CC1` [Example 1063, methyl [4-({[5-(phenylsulfonyl)-2-(trifluoromethyl)phenyl]sulfonyl)amino)piperidin-1-yl]acetate] had an EC50 of 455 nM. At SFRP-1 [2], this molecule came in with an IC50 of 140 nM.

In turn, `CC(=O)N1CC[C@@H](C(=O)N2CCC(NS(=O)(=O)c3cc(S(=O)(=O)c4ccccc4)ccc3C(F)(F)F)CC2)C1` [Example 1064, N-(1-{[(3R)-1-acetylpyrrolidin-3-yl]carbonyl}piperidin-4-yl)-5-(phenylsulfonyl)-2-(trifluoromethyl)benzenesulfonamide] showed an EC50 at SFRP-1 [1] of 193 nM. At SFRP-1 [2], this molecule yielded an IC50 of 60 nM.

For the molecule `CC(=O)N1CC[C@H](C(=O)N2CCC(NS(=O)(=O)c3cc(S(=O)(=O)c4ccccc4)ccc3C(F)(F)F)CC2)C1` [Example 1065, N-(1-{[(3S)-1-acetylpyrrolidin-3-yl]carbonyl}piperidin-4-yl)-5-(phenylsulfonyl)-2-(trifluoromethyl)benzenesulfonamide], on SFRP-1 [1], a half-maximal response (EC50) required 167 nM. At SFRP-1 [2], the IC50 was found to be 50 nM.

Molecule `CC(C)(C)OC(=O)N1CCC(NS(=O)(=O)c2cc(S(=O)(=O)c3ccc(C(=O)O)cc3)ccc2C(F)(F)F)CC1` [Example 1066, 4-{[3-({[1-(tert-butoxycarbonyl)piperidin-4-yl]amino}sulfonyl)-4-(trifluoromethyl)phenyl]sulfonyl}benzoic acid] yielded an EC50 on SFRP-1 [1] of 615 nM. Further, the IC50 on SFRP-1 [2] amounted to 240 nM.

For the molecule `CS(=O)(=O)N1CCC[C@H]1C(=O)N1CCC(NS(=O)(=O)c2cc(S(=O)(=O)c3ccccc3)ccc2C(F)(F)F)CC1` [Example 1075, N-{1-[1-(methylsulfonyl)-L-prolyl]piperidin-4-yl}-5-(phenylsulfonyl)-2-(trifluoromethyl)benzenesulfonamide], the midpoint of the response at SFRP-1 [1], the EC50, lay at 114 nM. The molecule further displayed an IC50 on SFRP-1 [2] of 30 nM.

Regarding `O=C([C@@H]1CCCN1C(=O)c1ccc(Cl)nc1)N1CCC(NS(=O)(=O)c2cc(S(=O)(=O)c3ccccc3)ccc2C(F)(F)F)CC1` [Example 1079, N-(1-{1-[(6-chloropyridin-3-yl)carbonyl]-L-prolyl}piperidin-4-yl)-5-(phenylsulfonyl)-2-(trifluoromethyl)benzenesulfonamide], the EC50 at SFRP-1 [1] amounted to 329 nM. Further, the IC50 on SFRP-1 [2] amounted to 40 nM.

Molecule `O=C(O)c1ccc(S(=O)(=O)N2CCC[C@H]2C(=O)N2CCC(NS(=O)(=O)c3cc(S(=O)(=O)c4ccccc4)ccc3C(F)(F)F)CC2)cc1` [Example 1080, 4-[((2S)-2-{[4-({[5-(phenylsulfonyl)-2-(trifluoromethyl)phenyl]sulfonyl}amino)piperidin-1-yl]carbonyl}pyrrolidin-1-yl)sulfonyl]benzoic acid] displayed an EC50 on SFRP-1 [1] of 386 nM. In addition, at SFRP-1 [2], the IC50 came out at 30 nM.

As for `O=C(O)c1ccc2c(c1)CC(NS(=O)(=O)c1cc(S(=O)(=O)c3ccccc3)ccc1C(F)(F)F)C2` (stereo not drawn) [Example 1082, 2-({[5-(phenylsulfonyl)-2-(trifluoromethyl)phenyl]sulfonyl}amino)indane-5-carboxylic acid], on SFRP-1 [1], the EC50 was 289 nM. The molecule further displayed an IC50 on SFRP-1 [2] of 16 nM.

With `CNC(=O)CN1CCC(NS(=O)(=O)c2cc(S(=O)(=O)c3ccccc3)ccc2C(F)(F)F)CC1` [Example 1083, N-methyl-2-[4-({[5-(phenylsulfonyl)-2-(trifluoromethyl)phenyl]sulfonyl}amino)piperidin-1-yl]acetamide], the midpoint of the response at SFRP-1 [1], the EC50, lay at 366 nM. On SFRP-1 [2], this molecule came in with an IC50 of 150 nM.

Regarding `CN(C)C(=O)CN1CCC(NS(=O)(=O)c2cc(S(=O)(=O)c3ccccc3)ccc2C(F)(F)F)CC1` [Example 1085, N,N-dimethyl-2-[4-({[5-(phenylsulfonyl)-2-(trifluoromethyl)phenyl]sulfonyl}amino)piperidin-1-yl]acetamide], the EC50 at SFRP-1 [1] amounted to 746 nM. At SFRP-1 [2], this molecule gave an IC50 of 150 nM.

`CC(C)NC(=O)CN1CCC(NS(=O)(=O)c2cc(S(=O)(=O)c3ccccc3)ccc2C(F)(F)F)CC1` [Example 1086, N-isopropyl-2-[4-({[5-(phenylsulfonyl)-2-(trifluoromethyl)phenyl]sulfonyl}amino)piperidin-1-yl]acetamide]: the midpoint of the response at SFRP-1 [1], the EC50, lay at 492 nM. The same molecule gave an IC50 on SFRP-1 [2] of 270 nM.

On SFRP-1 [1], `O=C(CN1CCC(NS(=O)(=O)c2cc(S(=O)(=O)c3ccccc3)ccc2C(F)(F)F)CC1)N1CCOCC1` [Example 1087, N-[1-(2-morpholin-4-yl-2-oxoethyl)piperidin-4-yl]-5-(phenylsulfonyl)-2-(trifluoromethyl)benzenesulfonamide] gave an EC50 of 746 nM. The IC50 on SFRP-1 [2] amounted to 130 nM.

In the case of `O=C(c1cscn1)N1CCC(NS(=O)(=O)c2cc(S(=O)(=O)c3ccccc3)ccc2C(F)(F)F)CC1` [Example 1090, 5-(phenylsulfonyl)-N-[1-(1,3-thiazol-4-ylcarbonyl)piperidin-4-yl]-2-(trifluoromethyl)benzenesulfonamide], at SFRP-1 [1], the EC50 was 393 nM. The same molecule displayed a 50% inhibitory concentration (IC50) on SFRP-1 [2] of 60 nM.

For `O=S(=O)(NC1Cc2ccc(Br)cc2C1)c1cc(S(=O)(=O)c2ccccc2)ccc1C(F)(F)F` (stereo not drawn) [Example 1094, N-(5-bromo-2,3-dihydro-1H-inden-2-yl)-5-(phenylsulfonyl)-2-(trifluoromethyl)benzenesulfonamide], on SFRP-1 [1], the fold induction at 10 µM amounted to 10.4. Besides, on SFRP-1 [2], the IC50 was 110 nM.

`CC(C)(C)OC(=O)N1CCC[C@H]1C(=O)N1CCC(NS(=O)(=O)c2cc(S(=O)(=O)c3cccc(C#N)c3)ccc2C(F)(F)F)CC1` [Example 1095, tert-butyl (2S)-2-{[4-({[5-[(3-cyanophenyl)sulfonyl]-2-(trifluoromethyl)phenyl]sulfonyl}amino)piperidin-1-yl]carbonyl}pyrrolidine-1-carboxylate] yielded an EC50 on SFRP-1 [1] of 374 nM. The molecule further displayed an IC50 at SFRP-1 [2] of 60 nM.
